# Publication PMC10816808, “Enhancement of the Antitumor and Antimetastatic Effect of Topotecan and Normalization of Blood Counts in Mice with Lewis Carcinoma by Tdp1 Inhibitors—New Usnic Acid Derivatives” (International Journal of Molecular Sciences, 2024)
# Assays:
# Type in all cases: cell-based
# [1] = MTT cytotoxicity test, A-549; conditions: human, A-549 cells (lung cancer), read-out: semitoxic concentration (CC50), A-549
# Text: (§1) Compounds 6 and 8 with a bromophenol residue in the enamine fragment have a weak or moderate effect on cell survival (Table 1 and Supplementary Figure S1).
# (§2) Cytotoxicity of the compounds against human tumor cell lines: HeLa (cervical cancer), HCT-116 (colorectal cancer), A-549 (lung cancer), MCF-7 (breast cancer), T98G (glioblastoma), HepG2 (hepatocarcinoma), and nontumor cell lines: MRC-5 (lung fibroblasts) and HEK293A (human embryonic kidney) was examined using the MTT test. HCT-116 and MRC-5 cell lines were provided by the Cell Culture Bank of the State Research Center for Virology and Biotechnology Vector, Novosibirsk, Russia. A-549, MCF-7, and T98G cell lines were obtained from the Russian Cell Culture Collection (RCCC) Institute of Cytology RAS (St. Petersburg, Russia). HEK293A cells were purchased (ThermoFisher Scientific, Waltham, MA, USA).
# (§3) The cell culture medium DMEM medium (Invitrogen, Carlsbad, CA, USA) contained 10% fetal bovine serum (FBS) (Invitrogen), penicillin (100 units/mL), and streptomycin (100 µg/mL). Cells were seeded into 96-well plates at 5000 cells per well and grown at 37 °C and 5% CO2 in a humid atmosphere. At 30–50% confluence, the tested compounds were added to the medium to a final DMSO content of 1%. Control wells contained 1% DMSO. To determine the cytotoxicity of Tdp1 inhibitors, the cells were treated with compounds with concentrations ranging from 1 to 100 µM for 72 h at 37 °C for 72 h. All measurements were repeated a minimum of twice.
# [2] = MTT cytotoxicity test, HCT-116; conditions: human, HCT-116 cells (colorectal cancer), read-out: semitoxic concentration (CC50), HCT-116
# Text: as §1, §2, §3
# [3] = MTT cytotoxicity test, HEK293A; conditions: human, HEK293A cells (embryonic kidney, nontumor), read-out: semitoxic concentration (CC50), HEK293A
# Text: as §1, §2, §3
# [4] = MTT cytotoxicity test, HeLa; conditions: human, HeLa cells (cervical cancer), read-out: semitoxic concentration (CC50), HeLa
# Text: as §1, §2, §3
# [5] = MTT cytotoxicity test, MCF-7; conditions: human, MCF-7 cells (breast cancer), read-out: semitoxic concentration (CC50), MCF-7
# Text: as §1, §2, §3
# [6] = system: various types of cultured cells; assay: MTT test, panel of cultured cell lines; conditions: at concentrations up to 100 μM; wide panel of tumor and non-cancerous cell lines
# Text: as §1, §2
# as §3, with “To determine the cytotoxicity of Tdp1 inhibitors, the cells were treated with compounds with concentrations ranging from 1 to 100 µM for 72 h at 37 °C for 72 h. All measurements were repeated a minimum of twice.” left out
# [7] = Topotecan cytotoxicity with Tdp1 inhibitor (MTT), MRC-5; conditions: human, MRC-5 cells (lung fibroblasts, nontumor); topotecan alone or in the presence of 5 µM Tdp1 inhibitor
# Text: (§4) Tdp1 inhibitors combined with topotecan dramatically reduce tumor metastasis. Usnic acid derivatives of the enamine and hydrazonothiazole series turned out to be promising sensitizers of the action of topotecan both on cultured cell lines and on mouse tumors in vivo [30, 32]. We studied the ability of the usnic acid derivatives to sensitize the effects of topotecan on the same panel of cell lines. We used two non-cancerous cell lines MRC-5 and HEK293A, including previously obtained HEK293A Tdp1 knockout cells (for compound 7), and cancerous cell lines HeLa, HCT-116, A-549, MCF-7, T98G. We found the most pronounced and reliable sensitizing effect on cancerous cell lines HeLa, HCT-116, A-549, MCF-7 only for compound 7 (Table 2 and Figures S2 and S3).
# as §2, with “HEK293A cells were purchased (ThermoFisher Scientific, Waltham, MA, USA).” left out
# [8] = system: HeLa; assay: Topotecan cytotoxicity with Tdp1 inhibitor (MTT), HeLa; conditions: Homo sapiens, topotecan alone or in the presence of 5 µM Tdp1 inhibitor
# Text: as §4
# as §2, with “HEK293A cells were purchased (ThermoFisher Scientific, Waltham, MA, USA).” left out
# [9] = Topotecan cytotoxicity with Tdp1 inhibitor (MTT), HEK293A; conditions: human, HEK293A cells (embryonic kidney, nontumor); topotecan alone or in the presence of 5 µM Tdp1 inhibitor
# Text: as §4
# as §2, with “HEK293A cells were purchased (ThermoFisher Scientific, Waltham, MA, USA).” left out
# [10] = system: HCT-116; assay: Topotecan cytotoxicity with Tdp1 inhibitor (MTT), HCT-116; conditions: Homo sapiens, topotecan alone or in the presence of 5 µM Tdp1 inhibitor
# Text: as §4
# as §2, with “HEK293A cells were purchased (ThermoFisher Scientific, Waltham, MA, USA).” left out
# [11] = system: A-549; assay: Topotecan cytotoxicity with Tdp1 inhibitor (MTT), A-549; conditions: Homo sapiens, A549; topotecan alone or in the presence of 5 µM Tdp1 inhibitor
# Text: as §4
# as §2, with “HEK293A cells were purchased (ThermoFisher Scientific, Waltham, MA, USA).” left out
# [12] = system: MCF-7; assay: Topotecan cytotoxicity with Tdp1 inhibitor (MTT), MCF-7; conditions: Homo sapiens, MCF7; topotecan alone or in the presence of 5 µM Tdp1 inhibitor
# Text: as §4
# as §2, with “HEK293A cells were purchased (ThermoFisher Scientific, Waltham, MA, USA).” left out
# [13] = system: T98G; assay: Topotecan cytotoxicity with Tdp1 inhibitor (MTT), T98G; conditions: Homo sapiens, topotecan alone or in the presence of 5 µM Tdp1 inhibitor
# Text: as §4
# as §2, with “HEK293A cells were purchased (ThermoFisher Scientific, Waltham, MA, USA).” left out
SMILES,CC50 at 72 h [1],CC50 at 72 h [2],CC50 at 72 h [3],CC50 at 72 h [4],CC50 at 72 h [5],"living cells (metabolic activity, MTT) [6]",CC50 [7],CC50 [8],CC50 [9],CC50 [10],CC50 [11],CC50 [12],CC50 [13]
"C/C(NCCCc1cc(C(C)(C)C)c(O)c(C(C)(C)C)c1)=C1\C(=O)C=C2Oc3c(-c4csc(N/N=C/c5ccc(Br)cc5)n4)c(O)c(C)c(O)c3[C@@]2(C)C1=O [Compound 7, (4E)-10-{2-[(E)-2-[(4-bromophenyl)methylidene]hydrazin-1-yl]-1,3-thiazole-4-yl}-4-(1-{[3-(3,5-di-tret-butyl-4-hydroxyhenyl)propyl]amino}ethylidene)-11,13-dihydroxy-2,12-dimethyl-8-oxatricyclo [7.4.0.02,7]trideca-1(13),6,9,11-tetraen-3,5-dione]",> 100 µM,> 100 µM,> 100 µM,> 100 µM,> 100 µM,more than 50%,–,–,–,–,–,–,–
"CC[C@@]1(O)C(=O)OCc2c1cc1n(c2=O)Cc2cc3c(CN(C)C)c(O)ccc3nc2-1 [Tpc, topotecan]",–,–,–,–,–,–,> 10 µM,9.9 µM,0.033 µM,0.81 µM,1.5 µM,1.4 µM,2.5 µM
